Reference: publication PMC11336835 (Heliyon, 2024)
In brackets after ≈: the same amount, converted by molar mass. Read-outs that look alike come from different tables or passages of the source. *1 amine or outer side, *2 acyl side, *3 side chain or, on linkers, in order; H or OH if unused. Where a SMILES comes first, the peptide text is derived from it. Bridges are numbered along the chain shown (N, C = ends). Roman numbers before positions name the chains, in order. [ ]: non-standard residue; d: D form. Actinocin(9to1) = Cc1c2oc3c(C)ccc(C(=O)[*:1])c3nc-2c(C(=O)[*:2])c(N)c1=O; NMeV = CN[C@H](C(=O)O)C(C)C; Sar = CNCC(=O)O

Experiments:
Salmonella enterica = test: Antimicrobial spectrum assay, Salmonella enterica; type: cell-based; settings: ND = no inhibition detected at maximum concentration tested (100 μg/mL)
[1] = system: Mycobacterium smegmatis mc2155; test: Resazurin reduction growth inhibition assay, M. smegmatis; type: cell-based; settings: for IC50: Mycolicibacterium smegmatis, MC2155, growth inhibition, resazurin, means ± SEM of triplicates, read-out: IC50 against Mycobacterium smegmatis
[2] = system: Mycobacterium tuberculosis H37Rv; test: Resazurin reduction growth inhibition assay, M. tuberculosis H37Rv; type: cell-based; settings: for IC50: Mycobacterium tuberculosis, H37RV, read-out: IC50 against Mycobacterium tuberculosis H37Rv; for IC50 / IC50 against Mycobacterium tuberculosis H37Rv: means ± SEM of triplicates
[3] = system: Mycobacterium bovis var BCG; test: organism not typed; type: cell-based; settings: for IC50: read-out: IC50 against Mycobacterium bovis var BCG
Staphylococcus aureus = test: Antimicrobial spectrum assay, Staphylococcus aureus; type: cell-based; settings: for IC50: Staphylococcus aureus, read-out: IC50 against Staphylococcus aureus
Shikimate kinase (MtSK) = molecular target: T1, Shikimate kinase (MtSK) (Mycobacterium tuberculosis, UniProt P9WPY3); test: Recombinant MtSK inhibition, ADP coupling assay; type: biochemical, M. tuberculosis; settings: for IC50: read-out: Inhibition Concentration (IC50), MtSK (converted); for Ki: read-out: inhibition constant (Ki), MtSK (converted)
T1 construct: made in house; host or cells: E. coli
Experimental: In this study, we conducted enzymatic assays to assess the inhibition of the pure compound isolated in this experiment. We also assayed control and standard drugs (rifampicin and actinomycin D). At this time, we focused on three essential enzymes in M. tuberculosis: Shikimate kinase (MtSK), phosphopantothenoylcysteine synthetase phosphopantothenoylcysteine decarboxylase (MtCoABC), and 5-enolpyruvylshikimate-3-phosphate synthase (MtEPSPS), based on docking results. All these enzymes were prepared as recombinant proteins expressed in E. coli (details not included in this study or unpublished data). For the MtSK inhibition assessment, we quantified the production of ADP in the reaction using a coupling assay, as previously described. In the case of MtCoABC and MtEPSPS inhibition, we employed a pyrophosphate assay with the BIOMOL® Green reagent (Enzo Life Sciences). All assays were conducted on a 96-well plate format, with each well having a final volume of 50 μL.

Bacillus subtilis = test: Antimicrobial spectrum assay, Bacillus subtilis; type: cell-based; settings: for IC50: Bacillus subtilis, read-out: IC50 against Bacillus subtilis
in vitro = settings: human, DLD-1 colorectal adenocarcinoma cells
Experimental: The cytotoxicity assay involved the evaluation of cytotoxic effects on human cells using the colorectal adenocarcinoma cell line (DLD-1). The DLD-1 cells were cultured in a 75 cm^2 flask (Violamo) at 37 °C, with Roswell Park Memorial Institute (RPMI 1640) medium supplemented with 10 % FBS, 2.1 mM stable Glutamine, and 2.0 g/L NaHCO3. DLD-1 cells in a semiconfluent state were detached from the flask by incubating them with 5 mL of RPMI 1640 containing 0.25 % trypsin-EDTA to conduct the assay. After detachment, the DLD-1 cells were resuspended in RPMI 1640 supplemented with FBS, L-glutamine, and NaHCO3, and their cell viability was assessed using 0.4 % Trypan blue on a hemocytometer. Approximately 100 μL of the cell suspension, containing 3,000 cells, was added to each well of a 96-well clear-bottom plate. Cells were dispensed into the wells containing 2 μL of compounds dissolved in 50 % DMSO (final compound concentrations: 100, 20, 4, 0.8, and 0.2 μM and final DMSO concentration was 1 % each well). The culture plate was then incubated at 37 °C under 5 % CO2. Following 48 h of cultivation, 10 μL of Cell Counting Kit 8 (Dojindo, Japan) was added to each well, and the plates were further incubated for 2 h to examine cell growth and survival. The absorbance at 450 nm wavelength was measured using a microplate reader. The assay was conducted in triplicate for each dilution.

[4] = Solubility of the purified compound in solvents; type: physicochemical; settings: qualitative

T1 sequence (P9WPY3 whole entry): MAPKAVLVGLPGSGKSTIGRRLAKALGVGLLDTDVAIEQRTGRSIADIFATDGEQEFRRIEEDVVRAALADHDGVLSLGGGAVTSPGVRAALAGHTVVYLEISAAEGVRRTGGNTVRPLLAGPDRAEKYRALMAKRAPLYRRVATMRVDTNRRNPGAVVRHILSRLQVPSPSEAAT

In the case of `Cc1c2oc3c(C)ccc(C(=O)N[C@@H]4C(=O)N[C@H](C(C)C)C(=O)N5CCC[C@H]5C(=O)N(C)CC(=O)N(C)[C@@H](C(C)C)C(=O)O[C@@H]4C)c3nc-2c(C(=O)N[C@@H]2C(=O)N[C@H](C(C)C)C(=O)N3CCC[C@H]3C(=O)N(C)CC(=O)N(C)[C@@H](C(C)C)C(=O)O[C@@H]2C)c(N)c1=O` [Actinomycin D, actinomycin D] (I: T[dV]P[Sar][NMeV] / II: T[dV]P[Sar][NMeV]; ester I:1-I:C, II:1-II:C; linker I:N-II:N via Actinocin(9to1)), the “IC50 against Salmonella enterica” value (Salmonella enterica) is reported as 14.65 ± 1.22 µg/mL (≈ 11.7 µM), the IC50 (Salmonella enterica; Salmonella enterica, read-out: IC50 against Salmonella enterica) is reported as 14.7 µg/mL (≈ 11.7 µM) and the “IC50 against Mycobacterium smegmatis” value [1] is reported as 0.78 ± 0.21 µg/mL (≈ 0.621 µM). The IC50 ([2]; […]) was 0.8 ± 0.12 µg/mL (≈ 0.637 µM), the “IC50 against Mycobacterium bovis var BCG” value [3] was 0.8 ± 0.09 µg/mL (≈ 0.637 µM) and the “IC50 against Staphylococcus aureus” value (Staphylococcus aureus) was less than 0.3 µg/mL. The IC50 (Shikimate kinase (MtSK)) was 71.6 µM, the Ki (Shikimate kinase (MtSK)) was 94.9 µM and the “IC50 against Bacillus subtilis” value (Bacillus subtilis) was less than 0.3 µg/mL.

For `Cc1c2oc3c(C)ccc(C(=O)N[C@@H]4C(=O)N[C@H](C(C)C)C(=O)N5CCC[C@H]5C(=O)N(C)CC(=O)N(C)[C@@H](C(C)C)C(=O)O[C@@H]4C)c3nc-2c(C(=O)N[C@@H]2C(=O)N[C@H](C(C)C)C(=O)N3CCC[C@H]3C(=O)N(C)CC(=O)N(C)[C@@H](C(C)C)C(=O)O[C@@H]2C)c(N)c1=O` [F5(23), actinomycin D] (I: T[dV]P[Sar][NMeV] / II: T[dV]P[Sar][NMeV]; ester I:1-I:C, II:1-II:C; linker I:N-II:N via Actinocin(9to1)), the “IC50 against Salmonella enterica” value (Salmonella enterica) was “no inhibitory effect”, the IC50 at 48 h (in vitro) was greater than 80 µg/mL and the IC50 [1] was 0.74 ± 0.03 µg/mL (≈ 0.589 µM). For the same compound, the solubility in solvents [4] was “soluble in dichloromethane, chloroform, methanol, ethyl acetate and DMSO”, the “increase in potency against M. tuberculosis compared to actinomycin D” value [2] was 10 fold and the IC50 ([2]; growth inhibition, resazurin) was 0.07 ± 0.009 µg/mL (≈ 0.0558 µM). For the same compound, the “potency against M. tuberculosis compared to rifampicin” value ([2]; greater effect than rifampicin) was roughly 10 fold, the “increase in potency against M. bovis compared to actinomycin D” value [3] was 10 fold and the IC50 [3] was 0.02 ± 0.01 µg/mL (≈ 0.0159 µM). It also gave an IC50 (Staphylococcus aureus) of less than 0.3 µg/mL, an IC50 (Shikimate kinase (MtSK); recombinant enzyme) of 32.8 µM and a Ki (Shikimate kinase (MtSK); recombinant enzyme) of 46.2 µM. The IC50 (Bacillus subtilis) was less than 0.3 µg/mL.

For `CO[C@H]1/C=C/O[C@@]2(C)Oc3c(C)c(O)c4c(O)c(c(/C=N/N5CCN(C)CC5)c(O)c4c3C2=O)NC(=O)/C(C)=C\C=C\[C@H](C)[C@H](O)[C@@H](C)[C@@H](O)[C@@H](C)[C@H](OC(C)=O)[C@@H]1C` [Rifampicin], the IC50 [1] was 0.48 ± 0.07 µg/mL (≈ 0.583 µM), the “IC50 against Mycobacterium tuberculosis H37Rv” value ([2]; growth inhibition, resazurin) was less than 0.01 µg/mL and the “IC50 against Mycobacterium tuberculosis H37Rv” value ([2]; growth inhibition, resazurin, listed as rifampicin) was 0.8 ± 0.12 µg/mL (≈ 0.972 µM). The IC50 [3] was less than 0.03 µg/mL, the IC50 (Staphylococcus aureus) was less than 0.3 µg/mL and the IC50 (Bacillus subtilis) was less than 0.3 µg/mL.
